{"source": "patent US20240197695A1", "about": "“COMPOUND FOR PREVENTION OR TREATMENT OF KIDNEY DISEASE” (ONCOCROSS CO.,LTD, priority 2021, published 2024)", "format_in_all_cases": "in vivo, mice (C57BL/6)", "key": {"[1]": {"assay": "Body weights of mice in diabetic nephrosis model", "conditions": "2 mg/kg/day oral", "experimental": "(§1) STZ (Sigma-aldrich, S0130, 40 mg/kg b.w., in 0.1 M citrate buffer pH 4.5) was intraperitoneally administered to 9-week-old male mice (C57BL/6) once/1 day for 5 days to perform a first disease induction. After 7 weeks of the first induction, a second induction was performed using the same method as the first induction. For 5 days of an STZ administration period for the first induction, 10% sucrose was administered as drinking water. In addition, after 14 days of the second administration, blood glucose levels were confirmed to confirm the induction rate, and the induced animals were separated into groups. Experimental substances (R)-4-{(R)-1-[7-(3,4,5-trimethoxy-phenyl)-[1,6] naphthyridin-5-yloxy]-ethyl}pyrrolidin-2-one (BI-1002494) and cromolyn (OC-101) were administered orally into the stomach at 10 mL/kg using an administration syringe (sonde) before 16:00 daily for 12 weeks at a frequency of 7 days/week at doses shown in Table 1 below, and dexamethasone was orally administered as a positive control substance."}, "[2]": {"assay": "Feed intake of mice in diabetic nephrosis model", "set-up": "Feed intake, Mean: unit not given here", "conditions": "2 mg/kg/day oral", "experimental": "as §1"}, "[3]": {"assay": "Drinking water intake of mice in diabetic nephrosis model", "set-up": "unit not given here", "conditions": "2 mg/kg/day oral", "experimental": "as §1"}, "[4]": {"system": "diabetic nephrosis animal models", "assay": "Changes in blood glucose levels (tail vein, blood glucose level meter)", "conditions": "2 mg/kg/day oral", "experimental": "as §1\nBefore disease induction, excluding week 9 of administration of experimental substances to mice in each group of Example 1 above, after 2 weeks after the first induction (based on a first administration date), and after 6 weeks and 2 weeks of the second induction (based on the first administration date), blood was collected from the tail vein and blood glucose levels were measured using a blood glucose level meter (Accu-Check, Roche), and fasting was performed for 4 hours from 9:30 a.m. to 1:30."}, "[5]": {"system": "diabetic nephrosis animal models", "conditions": "2 mg/kg/day oral, after observation period, fasted", "experimental": "as §1\n(§2) After the observation period for mice of each group in Example 1 was terminated, all surviving animals were fasted in the same manner as when measuring blood glucose levels, and then anesthetized by inhaling isoflurane, and blood was collected from the abdominal vena cava through laparotomy. After the blood collection was completed, the veins and arteries were cut under anesthesia and exsanguinated. The collected blood was left at room temperature for 30 minutes or more and then centrifuged at 3,000 rpm for 20 minutes. Thereafter, glucose, Blood urea nitrogen (BUN), and creatinine were analyzed using an automated blood biochemistry analyzer (Hitachi 3100, Hitachi Co. Ltd., Japan). Indoxyl sulfate (a substance that was mainly produced in the intestines to cause renal injury, and a substance that caused end-stage renal failure by advancing renal function damage in patients with renal failure during hemodialysis) was analyzed using LC MS/MS. In addition, blood insulin was analyzed according to a method represented by a commercial Mouse Insulin ELISA KIT (#AKRIN-011T, Sibayagi Co. Ltd., Japan)."}, "[6]": {"system": "diabetic nephrosis animal models", "assay": "Blood insulin (Mouse Insulin ELISA KIT) and HOMA-IR", "conditions": "2 mg/kg/day oral, after observation period, fasted", "experimental": "as §1, §2"}, "[7]": {"system": "diabetic nephrosis animal models", "assay": "Blood indoxyl sulfate by LC MS/MS", "conditions": "2 mg/kg/day oral, after observation period, fasted", "experimental": "as §1, §2"}, "[8]": {"system": "diabetic nephrosis animal models", "assay": "Histopathological change (H&E) in liver, kidney, pancreas", "conditions": "G3, 2 mg/kg oral; count in group of 10 animals", "experimental": "as §1\nAt the end of the observation period, the mice in each group of Example 1 were confirmed to be dead, and the liver, kidney, and pancreas were extracted and fixed with 10% neutral buffered formalin (NBF) in at least 20 times the tissue volume. The fixed tissue was sectioned to a thickness of approximately 4 mm and then produced into a paraffin block through general tissue processing and embedding processes. Thereafter, the tissue was sectioned to a thickness of 4 μm using a rotary microtome, and then H&E staining was performed, and histopathological changes were observed."}}, "note": "Marks after values point to notes of the source that are not given here.", "data": [{"smiles": "C[C@@H]1C[C@H]2[C@@H]3CCC4=CC(=O)C=C[C@]4(C)[C@@]3(F)[C@@H](O)C[C@]2(C)[C@@]1(O)C(=O)CO", "note": "[Dexa, dexamethasone, reference compound]", "values": [{"measurement": "Body weight, Mean", "setting": "[1]; week 0", "result": 24, "unit": "g"}, {"measurement": "Body weight, Mean", "setting": "[1]; week 1", "result": 23.5, "unit": "g"}, {"measurement": "Body weight, Mean", "setting": "[1]; week 2", "result": 23.6, "unit": "g"}, {"measurement": "Body weight, Mean", "setting": "[1]; week 3", "result": 23.6, "unit": "g"}, {"measurement": "Body weight, Mean", "setting": "[1]; week 4", "result": 23.6, "unit": "g"}, {"measurement": "Body weight, Mean", "setting": "[1]; week 5", "result": 23.7, "unit": "g"}, {"measurement": "Body weight, Mean", "setting": "[1]; week 6", "result": 23.6, "unit": "g"}, {"measurement": "Body weight, Mean", "setting": "[1]; week 7", "result": 23.8, "unit": "g"}, {"measurement": "Body weight, Mean", "setting": "[1]; week 8", "result": 23.6, "unit": "g"}, {"measurement": "Body weight, Mean", "setting": "[1]; week 10", "result": 23.3, "unit": "g"}, {"measurement": "Feed intake, Mean", "setting": "[2]; week 0", "result": 6.71}, {"measurement": "Feed intake, Mean", "setting": "[2]; week 1", "result": 5.48}, {"measurement": "Feed intake, Mean", "setting": "[2]; week 2", "result": 5.80}, {"measurement": "Feed intake, Mean", "setting": "[2]; week 3", "result": 5.84}, {"measurement": "Feed intake, Mean", "setting": "[2]; week 4", "result": 5.89}, {"measurement": "Feed intake, Mean", "setting": "[2]; week 5", "result": 5.65}, {"measurement": "Feed intake, Mean", "setting": "[2]; week 6", "result": 5.30}, {"measurement": "Feed intake, Mean", "setting": "[2]; week 7", "result": 5.56}, {"measurement": "Feed intake, Mean", "setting": "[2]; week 8", "result": 5.21}, {"measurement": "Feed intake, Mean", "setting": "[2]; week 9", "result": 5.29}, {"measurement": "Feed intake, Mean", "setting": "[2]; week 10", "result": 5.64}, {"measurement": "Drinking water intake, Mean", "setting": "[3]; week 0", "result": 7.07}, {"measurement": "Drinking water intake, Mean", "setting": "[3]; week 1", "result": 7.73}, {"measurement": "Drinking water intake, Mean", "setting": "[3]; week 2", "result": 7.06}, {"measurement": "Drinking water intake, Mean", "setting": "[3]; week 3", "result": 7.69}, {"measurement": "Drinking water intake, Mean", "setting": "[3]; week 4", "result": 7.69}, {"measurement": "Drinking water intake, Mean", "setting": "[3]; week 5", "result": 7.10}, {"measurement": "Drinking water intake, Mean", "setting": "[3]; week 6", "result": 7.35}, {"measurement": "Drinking water intake, Mean", "setting": "[3]; week 7", "result": 7.19}, {"measurement": "Drinking water intake, Mean", "setting": "[3]; week 8", "result": 7.83}, {"measurement": "Drinking water intake, Mean", "setting": "[3]; week 9", "result": 7.45}, {"measurement": "Drinking water intake, Mean", "setting": "[3]; week 10", "result": 7.19}, {"measurement": "Blood glucose level, Mean", "setting": "[4]; week 0, 4 h fasting, in mg/dL (unit assumed)", "result": 307.1}, {"measurement": "Blood glucose level, Mean", "setting": "[4]; week 2, 4 h fasting, in mg/dL (unit assumed)", "result": 309.1}, {"measurement": "Blood glucose level, Mean", "setting": "[4]; week 4, 4 h fasting, in mg/dL (unit assumed)", "result": 329.2}, {"measurement": "Blood glucose level, Mean", "setting": "[4]; week 6, 4 h fasting, in mg/dL (unit assumed)", "result": 336.9}, {"measurement": "Blood glucose level, Mean", "setting": "[4]; week 8, 4 h fasting", "result": "286.1^#"}, {"measurement": "Blood glucose level, Mean", "setting": "[4]; week 10, 4 h fasting, in mg/dL (unit assumed)", "result": 331.4}, {"measurement": "CRE, Mean", "setting": "[5]", "result": 0.1, "unit": "mg/dL"}, {"measurement": "GLU, Mean", "setting": "[5]", "result": "335.6^# mg/dL"}, {"measurement": "T-CHO, Mean", "setting": "[5]", "result": 139.0, "unit": "mg/dL"}, {"measurement": "HOMA-IR, Mean", "setting": "[6]", "result": "11.2^#"}, {"measurement": "Insulin, Mean", "setting": "[6]", "result": 0.6, "unit": "ng/mL"}, {"measurement": "Indoxyl sulfate, Mean", "setting": "[7]", "result": "2.5^# μg/mL"}, {"measurement": "Kidney: Medullar apoptosis", "setting": "[8]", "result": 1}, {"measurement": "Kidney: Medullar mineralization", "setting": "[8]", "result": 1}, {"measurement": "Kidney: NHL", "setting": "[8]", "result": 6}, {"measurement": "Kidney: bowman's capsule hyperplasia", "setting": "[8]", "result": 2}, {"measurement": "Kidney: pappillary mineralization", "setting": "[8]", "result": 0}, {"measurement": "Liver: Apoptosis", "setting": "[8]", "result": 4}, {"measurement": "Liver: Cytoplasmic glycogen", "setting": "[8]", "result": 0}, {"measurement": "Liver: Eosinophlic focus of cellular alteration", "setting": "[8]", "result": 3}, {"measurement": "Liver: Mononuclear cell infiltrate", "setting": "[8]", "result": 0}, {"measurement": "Liver: NHL", "setting": "[8]", "result": 5}, {"measurement": "Pancrease: Apoptosis", "setting": "[8]", "result": 0}, {"measurement": "Pancrease: NHL", "setting": "[8]", "result": 8}, {"measurement": "Pancrease: islet degeneration", "setting": "[8]", "result": 1}, {"measurement": "Pancrease: islet hypertrophy", "setting": "[8]", "result": 0}, {"measurement": "Pancrease: islet, mononuclear cell infillitrate", "setting": "[8]", "result": 1}]}]}
